Reference: PubChem BioAssay AID248 (DTP/NCI, 2004)
Several values for one entry are separate records, joined by “and”; a condition that tells them apart may be missing. Equal entries are not always repeated. Inconclusive results and toxic doses are left out.

Test system: L1210 leukemia ip in BDF1 mice, survival T/C
Experiment: NCI In Vivo Anticancer Drug Screen. Data for tumor model L1210 Leukemia (intraperitoneal) in B6D2F1 (BDF1) mice
Settings: higher = longer survival
In short: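 Transplantable tumor model; survival measured in treated vs vehicle control mice. Value = treated/control.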

O=C(O)CCCc1ccc(N(CCCl)CCCl)cc1
T/C (endpoint: mean survival time, dose: 0.5 mg/kg/injection, schedule: Q01DX009 (ip), vehicle: saline with Tween-80): 101 % of control and 104 % of control
T/C (endpoint: mean survival time, dose: 1.0 mg/kg/injection, schedule: Q01DX009 (ip), vehicle: saline with Tween-80): 96 % of control and 106 % of control
T/C (endpoint: mean survival time, dose: 1.0 mg/kg/injection, schedule: Q04DX002 (ip), vehicle: saline with Tween-80): 95 % of control and 105 % of control
T/C (endpoint: mean survival time, dose: 1.0 mg/kg/injection, schedule: Q12HX018 (ip), vehicle: saline with Tween-80): 107 % of control
T/C (endpoint: mean survival time, dose: 1.81 mg/kg/injection, schedule: Q01DX Z (ip), vehicle: carboxymethylcellulose (CMC)): 103 % of control
T/C (endpoint: mean survival time, dose: 2.0 mg/kg/injection, schedule: Q01DX009 (ip), vehicle: saline with Tween-80): 103 % of control and 107 % of control
T/C (endpoint: mean survival time, dose: 2.0 mg/kg/injection, schedule: Q04DX002 (ip), vehicle: saline with Tween-80): 100 % of control and 105 % of control
T/C (endpoint: mean survival time, dose: 2.0 mg/kg/injection, schedule: Q08HX027 (ip), vehicle: acetone): 120 % of control
T/C (endpoint: mean survival time, dose: 2.0 mg/kg/injection, schedule: Q12HX018 (ip), vehicle: acetone): 110 % of control and 111 % of control and 121 % of control
T/C (endpoint: mean survival time, dose: 2.0 mg/kg/injection, schedule: Q12HX018 (ip), vehicle: saline with Tween-80): 115 % of control
T/C (endpoint: mean survival time, dose: 2.5 mg/kg/injection, schedule: Q01DX001 (ip), vehicle: carboxymethylcellulose (CMC)): 112 % of control
T/C (endpoint: mean survival time, dose: 3.62 mg/kg/injection, schedule: Q01DX Z (ip), vehicle: carboxymethylcellulose (CMC)): 106 % of control
T/C (endpoint: mean survival time, dose: 4.0 mg/kg/injection, schedule: Q01DX009 (ip), vehicle: acetone): 112 % of control and 123 % of control
T/C (endpoint: mean survival time, dose: 4.0 mg/kg/injection, schedule: Q01DX009 (ip), vehicle: saline with Tween-80): 100 % of control and 115 % of control
T/C (endpoint: mean survival time, dose: 4.0 mg/kg/injection, schedule: Q04DX002 (ip), vehicle: saline with Tween-80): 96 % of control and 102 % of control
T/C (endpoint: mean survival time, dose: 4.0 mg/kg/injection, schedule: Q12HX018 (ip), vehicle: Klucel (hydroxypropylcellulose) (HPC)): 115 % of control
T/C (endpoint: mean survival time, dose: 4.0 mg/kg/injection, schedule: Q12HX018 (ip), vehicle: acetone): 122 % of control
T/C (endpoint: mean survival time, dose: 4.0 mg/kg/injection, schedule: Q12HX018 (ip), vehicle: other): 112 % of control and 121 % of control
T/C (endpoint: mean survival time, dose: 4.0 mg/kg/injection, schedule: Q12HX018 (ip), vehicle: saline with Tween-80): 124 % of control
T/C (endpoint: mean survival time, dose: 5.0 mg/kg/injection, schedule: Q01DX001 (ip), vehicle: carboxymethylcellulose (CMC)): 103 % of control
T/C (endpoint: mean survival time, dose: 5.0 mg/kg/injection, schedule: Q08HX027 (ip), vehicle: acetone): 90 % of control
T/C (endpoint: mean survival time, dose: 5.8 mg/kg/injection, schedule: Q01DX Z (ip), vehicle: carboxymethylcellulose (CMC)): 101 % of control and 103 % of control
T/C (endpoint: mean survival time, dose: 6.0 mg/kg/injection, schedule: Q12HX018 (ip), vehicle: Klucel (hydroxypropylcellulose) (HPC)): 116 % of control
T/C (endpoint: mean survival time, dose: 6.0 mg/kg/injection, schedule: Q12HX018 (ip), vehicle: acetone): 162 % of control
T/C (endpoint: mean survival time, dose: 6.0 mg/kg/injection, schedule: Q12HX018 (ip), vehicle: other): 120 % of control
T/C (endpoint: mean survival time, dose: 6.0 mg/kg/injection, schedule: Q12HX018 (ip), vehicle: saline with Tween-80): 120 % of control
T/C (endpoint: mean survival time, dose: 6.25 mg/kg/injection, schedule: Q01DX Z (ip), vehicle: carboxymethylcellulose (CMC)): 113 % of control
T/C (endpoint: mean survival time, dose: 7.25 mg/kg/injection, schedule: Q01DX Z (ip), vehicle: carboxymethylcellulose (CMC)): 98 % of control and 103 % of control and 120 % of control
T/C (endpoint: mean survival time, dose: 8.0 mg/kg/injection, schedule: Q01DX009 (ip), vehicle: saline with Tween-80): 115 % of control and 116 % of control
T/C (endpoint: mean survival time, dose: 8.0 mg/kg/injection, schedule: Q04DX002 (ip), vehicle: saline with Tween-80): 96 % of control and 98 % of control
T/C (endpoint: mean survival time, dose: 8.0 mg/kg/injection, schedule: Q12HX018 (ip), vehicle: Klucel (hydroxypropylcellulose) (HPC)): 114 % of control and 118 % of control
T/C (endpoint: mean survival time, dose: 8.0 mg/kg/injection, schedule: Q12HX018 (ip), vehicle: acetone): 100 % of control
T/C (endpoint: mean survival time, dose: 8.0 mg/kg/injection, schedule: Q12HX018 (ip), vehicle: saline with Tween-80): 118 % of control
T/C (endpoint: mean survival time, dose: 9.66 mg/kg/injection, schedule: Q01DX Z (ip), vehicle: carboxymethylcellulose (CMC)): 100 % of control and 114 % of control
T/C (endpoint: mean survival time, dose: 10.0 mg/kg/injection, schedule: Q01DX001 (ip), vehicle: carboxymethylcellulose (CMC)): 109 % of control
T/C (endpoint: mean survival time, dose: 10.0 mg/kg/injection, schedule: Q12HX018 (ip), vehicle: acetone): 88 % of control
T/C (endpoint: mean survival time, dose: 12.0 mg/kg/injection, schedule: Q01DX009 (ip), vehicle: acetone): 122 % of control
T/C (endpoint: mean survival time, dose: 12.0 mg/kg/injection, schedule: Q12HX018 (ip), vehicle: Klucel (hydroxypropylcellulose) (HPC)): 103 % of control and 121 % of control
T/C (endpoint: mean survival time, dose: 12.0 mg/kg/injection, schedule: Q12HX018 (ip), vehicle: saline with Tween-80): 109 % of control
T/C (endpoint: mean survival time, dose: 12.5 mg/kg/injection, schedule: Q01DX Z (ip), vehicle: carboxymethylcellulose (CMC)): 110 % of control
T/C (endpoint: mean survival time, dose: 14.5 mg/kg/injection, schedule: Q01DX Z (ip), vehicle: carboxymethylcellulose (CMC)): 114 % of control and 117 % of control
T/C (endpoint: mean survival time, dose: 16.0 mg/kg/injection, schedule: Q01DX009 (ip), vehicle: acetone): 101 % of control and 115 % of control
T/C (endpoint: mean survival time, dose: 16.0 mg/kg/injection, schedule: Q01DX009 (ip), vehicle: saline with Tween-80): 121 % of control
T/C (endpoint: mean survival time, dose: 16.0 mg/kg/injection, schedule: Q04DX002 (ip), vehicle: saline with Tween-80): 100 % of control and 108 % of control
T/C (endpoint: mean survival time, dose: 16.0 mg/kg/injection, schedule: Q12HX018 (ip), vehicle: Klucel (hydroxypropylcellulose) (HPC)): 92 % of control
T/C (endpoint: mean survival time, dose: 18.0 mg/kg/injection, schedule: Q01DX001 (ip), vehicle: carboxymethylcellulose (CMC)): 105 % of control
T/C (endpoint: mean survival time, dose: 20.0 mg/kg/injection, schedule: Q01DX001 (ip), vehicle: carboxymethylcellulose (CMC)): 115 % of control
T/C (endpoint: mean survival time, dose: 20.0 mg/kg/injection, schedule: Q01DX009 (ip), vehicle: acetone): 92 % of control
T/C (endpoint: mean survival time, dose: 20.0 mg/kg/injection, schedule: Q12HX018 (ip), vehicle: Klucel (hydroxypropylcellulose) (HPC)): 89 % of control
T/C (endpoint: mean survival time, dose: 25.0 mg/kg/injection, schedule: Q01DX Z (ip), vehicle: carboxymethylcellulose (CMC)): 116 % of control
T/C (endpoint: mean survival time, dose: 27.0 mg/kg/injection, schedule: Q01DX001 (ip), vehicle: carboxymethylcellulose (CMC)): 109 % of control
T/C (endpoint: mean survival time, dose: 27.0 mg/kg/injection, schedule: Q01DX001 (ip), vehicle: saline with Tween-80): 113 % of control and 115 % of control
T/C (endpoint: mean survival time, dose: 31.0 mg/kg/injection, schedule: Q04DX002 (ip), vehicle: saline with Tween-80): 108 % of control and 109 % of control
T/C (endpoint: mean survival time, dose: 40.0 mg/kg/injection, schedule: Q01DX001 (ip), vehicle: carboxymethylcellulose (CMC)): 115 % of control
T/C (endpoint: mean survival time, dose: 41.0 mg/kg/injection, schedule: Q01DX001 (ip), vehicle: carboxymethylcellulose (CMC)): 114 % of control
T/C (endpoint: mean survival time, dose: 41.0 mg/kg/injection, schedule: Q01DX001 (ip), vehicle: saline with Tween-80): 115 % of control and 121 % of control
T/C (endpoint: median survival time, dose: 3.0 mg/kg/injection, schedule: Q01DX009 (ip), vehicle: saline): 99 % of control
T/C (endpoint: median survival time, dose: 6.0 mg/kg/injection, schedule: Q01DX009 (ip), vehicle: saline): 105 % of control
T/C (endpoint: median survival time, dose: 12.0 mg/kg/injection, schedule: Q01DX009 (ip), vehicle: saline): 96 % of control
T/C (endpoint: median survival time, dose: 24.0 mg/kg/injection, schedule: Q01DX009 (ip), vehicle: saline): 89 % of control

CC(=O)NC1CCC(NC(C)=O)CC1 (stereo not given)
T/C (endpoint: mean survival time, dose: 100.0 mg/kg/injection, schedule: Q01DX001 (ip), vehicle: saline): 104 % of control
T/C (endpoint: mean survival time, dose: 200.0 mg/kg/injection, schedule: Q01DX001 (ip), vehicle: saline): 97 % of control
T/C (endpoint: mean survival time, dose: 400.0 mg/kg/injection, schedule: Q01DX001 (ip), vehicle: saline): 104 % of control

CCCCCCN=C(N)c1ccc(NC(=O)c2ccc(C(=O)Nc3ccc(C(N)=NCCCCCC)cc3)cc2)cc1
T/C (endpoint: mean survival time, dose: 0.62 mg/kg/injection, schedule: Q01DX015 (ip), vehicle: methylcellulose (MC)): 101 % of control
T/C (endpoint: mean survival time, dose: 1.25 mg/kg/injection, schedule: Q01DX015 (ip), vehicle: methylcellulose (MC)): 95 % of control
T/C (endpoint: mean survival time, dose: 2.5 mg/kg/injection, schedule: Q01DX015 (ip), vehicle: methylcellulose (MC)): 103 % of control
T/C (endpoint: mean survival time, dose: 5.0 mg/kg/injection, schedule: Q01DX015 (ip), vehicle: methylcellulose (MC)): 112 % of control

Cc1ccc(C(=O)OCC(C)C)s1
T/C (endpoint: mean survival time, dose: 100.0 mg/kg/injection, schedule: Q01DX001 (ip), vehicle: carboxymethylcellulose (CMC)): 98 % of control
T/C (endpoint: mean survival time, dose: 200.0 mg/kg/injection, schedule: Q01DX001 (ip), vehicle: carboxymethylcellulose (CMC)): 101 % of control
T/C (endpoint: mean survival time, dose: 400.0 mg/kg/injection, schedule: Q01DX001 (ip), vehicle: carboxymethylcellulose (CMC)): 98 % of control
